Laboratory results as given in article PMC7817688, “Identification of 3-chymotrypsin like protease (3CLPro) inhibitors as potential anti-SARS-CoV-2 agents” (Communications Biology, 2021).
Values joined by “and” are separate entries in the source; they are usually repeats but may differ in a detail not shown here. Equal values may be shown once.

Target: SARS-CoV-2 3CLpro enzyme (Severe acute respiratory syndrome coronavirus 2, UniProt P0DTD1)
Assay: biochemical
Conditions: for percent enzymatic activity, individual values / percent enzymatic activity, AVG: DMSO treated control = 100%, data of Figs. 2-4; for percent enzymatic activity, AVG: mean of 3 values
[1] = dose-dependent study, 0.048828 uM, individual values
[2] = dose-dependent study, 25 uM, individual values
[3] = dose-dependent study, 50 uM, individual values

Compound: Nc1nc(NC2CC2)c2ncn([C@H]3C=C[C@@H](CO)C3)c2n1 [Abacavir]
- percent enzymatic activity, individual values (50 µM drug): 85.8927% and 88.8256% and 90.5015% (2×)
- percent enzymatic activity, AVG (50 µM drug): 88.4066%

Compound: COC(=O)N[C@H](C(=O)N[C@@H](Cc1ccccc1)[C@@H](O)CN(Cc1ccc(-c2ccccn2)cc1)NC(=O)[C@@H](NC(=O)OC)C(C)(C)C)C(C)(C)C [Atazanavir]
- percent enzymatic activity, individual values (50 µM drug): 84.3318% and 88.0184% and 91.2442%
- percent enzymatic activity, AVG (50 µM drug): 87.8648%

Compound: CC(C)c1c(C(=O)Nc2ccccc2)c(-c2ccccc2)c(-c2ccc(F)cc2)n1CC[C@@H](O)C[C@@H](O)CC(=O)O [Atrovastatin]
- percent enzymatic activity, individual values (50 µM drug): 92.1569% and 107.843% and 99.0196%
- percent enzymatic activity, AVG (50 µM drug): 99.6732%

Compound: CC(C)(C)NC(=O)N[C@H](C(=O)N1C[C@H]2[C@@H]([C@H]1C(=O)NC(CC1CCC1)C(=O)C(N)=O)C2(C)C)C(C)(C)C (stereo partly drawn) [Boceprevir]
- percent enzymatic activity, individual values (50 µM drug): 54.8875% and 56.5635% and 59.0774%
- percent enzymatic activity, AVG (50 µM drug): 56.8428%
- % activity [1]: 71.4825%
- activity at 0.048828 µM [1]: 72.9%
- % activity (dose-dependent study, 0.097656 uM, individual values): 78.9417% and 76.1445%
- activity at 0.097656 µM (dose-dependent study, 0.097656 uM, individual values, read-out: % activity): 75.2%
- % activity (dose-dependent study, 0.195313 uM, individual values): 74.7459%
- activity at 0.195313 µM (dose-dependent study, 0.195313 uM, individual values, read-out: % activity): 73.3%
- % activity (dose-dependent study, 0.390625 uM, individual values): 72.4149%
- activity at 0.390625 µM (dose-dependent study, 0.390625 uM, individual values, read-out: % activity): 77.1%
- % activity (dose-dependent study, 0.78125 uM, individual values): 70.5501% and 71.9487%
- activity at 0.78125 µM (dose-dependent study, 0.78125 uM, individual values, read-out: % activity): 71%
- % activity (dose-dependent study, 1.5625 uM, individual values): 78.9417% and 72.4149%
- activity at 1.5625 µM (dose-dependent study, 1.5625 uM, individual values, read-out: % activity): 74.3%
- % activity (dose-dependent study, 3.125 uM, individual values): 84.5361%
- activity at 3.125 µM (dose-dependent study, 3.125 uM, individual values, read-out: % activity): 73.3%
- activity at 6.25 µM (dose-dependent study, 6.25 uM, individual values, read-out: % activity): 73.8%
- % activity (dose-dependent study, 12.5 uM, individual values): 70.0839% and 64.9557%
- activity at 12.5 µM (dose-dependent study, 12.5 uM, individual values, read-out: % activity): 61.2%
- % activity [2]: 57.4965% and 56.0979%
- activity at 25 µM [2]: 51.9%
- % activity [3]: 41.6457% and 41.1795%
- activity at 50 µM [3]: 37.4%
- % activity (dose-dependent study, 100 uM, individual values): 29.5245% and 31.8555%
- activity at 100 µM (dose-dependent study, 100 uM, individual values, read-out: % activity): 26.7%
- inhibitory effect towards 3CLpro enzymatic activity (in words) (in vitro enzymatic assay at the tested doses): partial inhibitory effect
- inhibition at 50 µM (read-out: inhibition of 3CLpro enzymatic activity, 50 µM drug): 45%

Compound: CN(C)C(=O)COC(=O)Cc1ccc(OC(=O)c2ccc(NC(=N)N)cc2)cc1 [Camostat]
- percent enzymatic activity, individual values (50 µM drug): 94.4701% and 101.843% and 102.304%
- percent enzymatic activity, AVG (50 µM drug): 99.5392%

Compound: CCN(CC)CCCC(C)Nc1ccnc2cc(Cl)ccc12 (stereo not drawn) [Chloroquine]
- percent enzymatic activity, individual values (50 µM drug, listed as Chloroquine Phosphate): 103.986% and 93.4637% and 103.367%
- percent enzymatic activity, AVG (50 µM drug): 100.272%

Compound: CC(C)(C)OC(=O)N[C@H]1CCCCC/C=C\[C@@H]2C[C@@]2(C(=O)NS(=O)(=O)C2CC2)NC(=O)[C@@H]2C[C@@H](OC(=O)N3Cc4cccc(F)c4C3)CN2C1=O [Danoprevir]
- percent enzymatic activity, individual values (50 µM drug): 70.073% and 72.9927% and 80.6569%
- percent enzymatic activity, AVG (50 µM drug): 74.5742%

Compound: CC(C)CN(C[C@@H](O)[C@H](Cc1ccccc1)NC(=O)O[C@H]1CO[C@H]2OCC[C@H]21)S(=O)(=O)c1ccc(N)cc1 [Darunavir]
- percent enzymatic activity, individual values (50 µM drug): 90.3226% and 93.0876% and 98.6175%
- percent enzymatic activity, AVG (50 µM drug): 94.0092%

Compound: CC(C)Nc1cccnc1N1CCN(C(=O)c2cc3cc(NS(C)(=O)=O)ccc3[nH]2)CC1 [Delavirdine (mesylate), Delavirdine]
- percent enzymatic activity, individual values (50 µM drug): 93.4344% and 97.6243% and 104.328%
- percent enzymatic activity, AVG (50 µM drug): 98.4623%

Compound: COc1cc2c(cc1Cc1cccc(Cl)c1F)c(=O)c(C(=O)O)cn2[C@H](CO)C(C)C [Elvitegravir]
- percent enzymatic activity, individual values (50 µM drug): 78.3509% and 80.4458% and 91.3395%
- percent enzymatic activity, AVG (50 µM drug): 83.3787%
